SMILES strings stand for the structures. Where a name gives a salt, the structure may show the parent alone. Read-outs that look alike come from different tables or passages of the source.

These results are taken from US5876751A, “Antispasmodic and antinflammatory composition and a process for the manufacture thereof” (priority 1996, dated 1999).

The conditions of series [1]: in vivo; cited from earlier work.
In the next series the test system is rat colon. The series can be described thus: Inhibition of acetylcholine-induced contraction in isolated distal portion of colon of rat, without and with diclofenac sodium. Particulars: for inhibition at 0.0005 µg/mL / inhibition at 0.001 µg/mL / inhibition at 0.002 µg/mL / inhibition at 0.01 µg/mL / inhibition at 0.02 µg/mL / inhibition at 0.04 µg/mL / inhibition at 0.08 µg/mL: Rattus norvegicus, Ach 100 ng/ml; for inhibition at 0.0005 µg/mL: fenpiverinium bromide 0.5 ng/ml; for inhibition at 0.001 µg/mL: fenpiverinium bromide 1.0 ng/ml; for inhibition at 0.002 µg/mL: fenpiverinium bromide 2.0 ng/ml; for inhibition at 0.01 µg/mL: pitofenone HCl 10 ng/ml; for inhibition at 0.02 µg/mL: pitofenone HCl 20 ng/ml; for inhibition at 0.04 µg/mL: pitofenone HCl 40 ng/ml; for inhibition at 0.08 µg/mL: pitofenone HCl 80 ng/ml. As to the method: In order to see the effect of NSAID on the antispasmodic activity of pitifenone hydrochloride and fenpiverinium bromide an experiment was conducted on standard isolated tissues of experimental animal. The tissue chosen for the experiment was the distal portion of colon of rat. The NSAID selected for the experiment was diclofenac sodium. The percentage inhibition of acetylcholine-induced contraction (at dosage level of 100 ng/m) was studied with varied concentration of pitofenone hydrochloride in the dose range of 10-80 nano gm/ml. […] The data obtained in the experiment is collected in Table -2.

For series [2] the following is noted: cited from earlier work.
The conditions of series [3]: Brogden et al, Drugs 20;24-48 (1980); cited from earlier work.
Setting [4] is: before diclofenac Na, read-out: Percentage inhibition of Ach induced contraction, before diclofenac Na.
Setting [5] is: with diclofenac sodium (20 μgm/ml), read-out: Percentage inhibition of Ach induced contraction, after diclofenac Na.
The mark [6] stands for this setting: with diclofenac sodium 20 μg/ml, read-out: Percentage inhibition of Ach induced contraction, after diclofenac Na.

For `Cc1c(N(C)CS(=O)(=O)O)c(=O)n(-c2ccccc2)n1C` [Analgin], in series [1], the bone marrow depression result is reported as “implicated in causing bone marrow depression”.

Take `C[N+]1(CCC(C(N)=O)(c2ccccc2)c2ccccc2)CCCCC1` [Fenpiverinium Bromide, fenpiverinium bromide]: in the series on rat colon (setting [4]), the inhibition (in general, the percentage by which the read-out fell short of the control) at 0.0005 µg/mL was determined as 43.8%; the inhibition at 0.001 µg/mL turned out to be 78.7%; the inhibition at 0.002 µg/mL came out at 100%. Moreover, in the series on rat colon (setting [5]), the inhibition at 0.0005 µg/mL was 100%, the inhibition at 0.001 µg/mL stood at 100% and the inhibition at 0.002 µg/mL came to 100%.

`COC(=O)c1ccccc1C(=O)c1ccc(OCCN2CCCCC2)cc1` [Pitofenone Hcl, pitofenone hydrochloride]: in the series on rat colon (setting [4]), the inhibition at 0.01 µg/mL was 0%, the inhibition at 0.02 µg/mL came out at 0%, the inhibition at 0.04 µg/mL was 0% and the inhibition at 0.08 µg/mL amounted to 20.2%. In the series with rat colon (setting [6]), the inhibition at 0.01 µg/mL came out at 100%, the inhibition at 0.02 µg/mL was 100%, the inhibition at 0.04 µg/mL was 100% and the inhibition at 0.08 µg/mL came out at 100%.

With `O=C(O)Cc1ccccc1Nc1c(Cl)cccc1Cl` [diclofenac sodium], the “side effects vs pethidine intramuscular” value in series [2] (intramuscular, acute renal colic) is reported as “fewer side effects”. Besides, the “effectiveness in the management of acute renal colic vs pethidine intramuscular” value in series [2] (intramuscular) was “more effective than narcotic analgesic like pethidine intramuscular”.

As for `O=C(O)Cc1ccccc1Nc1c(Cl)cccc1Cl` [diclofenac], the “use in painful non-rheumatic syndromes” value in series [2] (biliary colic (Grossi et al.), acute renal colic (Garcia Alonso et al.)) is “of use in painful non-rheumatic syndromes”. Besides, the reported pharmacological activity result in series [3] was “anti inflammatory activity, analgesic activity and anti pyretic activity”. In addition, the “potentiation of antispasmodic action of pitofenone hydrochloride and fenpiverinium bromide” value in the series on rat colon (general statement of findings) was “potentiates the antispasmodic action of pitofenone hydrochloride and fenpiverinium bromide several times”. Besides, the “action with pitofenone hydrochloride as an antispasmodic” value in the series on rat colon (rat colon, diclofenac sodium 20 μg/ml, pitofenone HCl 10-80 ng/ml) is given as “synergistic (potentiating) action”. The “action with fenpiverinium bromide as an antispasmodic” value in the series on rat colon (rat colon, diclofenac sodium 20 μgm/ml, fenpiverinium bromide 0.5-2 ng/ml) is reported as “synergistic (potentiating) action”.
